Measured values taken from patent US4582821A, “Inhibition of cyclic nucleotide independent protein kinases” (E. I. Du Pont de Nemours and Company, priority 1983, dated 1986).

Test system: lymphoma cell line YAC-1
Test: Tumor cell line growth inhibition, YAC-1
Assay type: cell-based
Method: In this series of experiments, the tumor cell growth inhibitory capacity of various peptide halomethyl ketones was tested against lymphoma cell lines YAC-1 and MOLT-4, and against an erythroleukemia cell line, K-562. The lymphoma cell line YAC-1 is described by Kiessling, et al., Eur. J. Immunol. 5:112 (1975), and MOLT-4 is described by Minowada, et al., J. Natl. Cancer Inst. 49:891 (1972) and Nilsson, et al., Int. J. Cancer 15:321 (1975). The erythroleukemia cell line K-562 is described by Lozzio, et al., Leuk. Res. 3:363 (1979). In these experiments, cells were grown on standard media as 10 mL suspension cultures. Initial cell density was 10^5 cells/mL. At day 0, test compounds were introduced in ethanol; control cultures received an equal volume of ethanol. Cells were counted at the times indicated.

Question: For CC(C)CC(NC(=O)OC(C)(C)C)C(=O)CBr (centres unmarked) [Boc-LeuCH2 Br], which “% Growth Relative to Control Cultures” value (0.4 μg/mL, day 4) is on record?
Answer: Its value is 97%.

Question: And the “% Growth Relative to Control Cultures” value (2.0 μg/mL, day 1)?
Answer: The value was 42%.

Question: What about the “% Growth Relative to Control Cultures” value (2.0 μg/mL, day 2) of the same molecule?
Answer: Its value is 31%.

Question: And the “% Growth Relative to Control Cultures” value (2.0 μg/mL, day 3)?
Answer: Its value is 28%.

Question: What about the “% Growth Relative to Control Cultures” value (2.0 μg/mL, day 4) of the same molecule?
Answer: Its value is 12%.

Question: What about the “% Growth Relative to Control Cultures” value (2.0 μg/mL, day 7) of the same molecule?
Answer: Its value is 28%.

Question: What about the “% Growth Relative to Control Cultures” value (10. μg/mL, day 1) of the same molecule?
Answer: The value was 67%.

Question: And the “% Growth Relative to Control Cultures” value (10. μg/mL, day 2)?
Answer: The value was 32%.

Question: What about the “% Growth Relative to Control Cultures” value (10. μg/mL, day 3) of the same molecule?
Answer: The value was 22%.

Question: What about the “% Growth Relative to Control Cultures” value (10. μg/mL, day 4) of the same molecule?
Answer: Its value is 13%.

Question: And the “% Growth Relative to Control Cultures” value (10. μg/mL, day 7)?
Answer: Its value is 16%.
